Test results from PubChem BioAssay AID330 (DTP/NCI, 2004).
Where “and” joins values, the source holds several entries; their conditions need not be identical. Equal values may be shown once. Inconclusive results and toxic doses are left out.

Test system: P388 leukemia ip, CD2F1 mice, survival T/C
Assay: NCI In Vivo Anticancer Drug Screen. Data for tumor model P388 Leukemia (intraperitoneal) in CD2F1 (CDF1) mice
Settings: endpoint: median survival time, higher = longer survival
In short: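 Mice carrying the transplanted tumor received test compound or vehicle. Survival was recorded in each group, and the value is the treated-group measurement divided by that of the vehicle-treated control group.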

[1] = dose: 60.0 mg/kg/injection, schedule: Q01DX005 (ip), vehicle: saline with Tween-80
[2] = dose: 120.0 mg/kg/injection, schedule: Q01DX005 (ip), vehicle: saline with Tween-80
[3] = dose: 240.0 mg/kg/injection, schedule: Q01DX005 (ip), vehicle: saline with Tween-80
[4] = dose: 12.5 mg/kg/injection, schedule: Q01DX009 (ip), vehicle: saline with Tween-80
[5] = dose: 50.0 mg/kg/injection, schedule: Q01DX009 (ip), vehicle: saline with Tween-80
[6] = dose: 100.0 mg/kg/injection, schedule: Q01DX009 (ip), vehicle: saline with Tween-80
[7] = dose: 50.0 mg/kg/injection, schedule: Q01DX009 (ip), vehicle: Klucel (hydroxypropylcellulose) (HPC)
[8] = dose: 100.0 mg/kg/injection, schedule: Q01DX009 (ip), vehicle: Klucel (hydroxypropylcellulose) (HPC)
[9] = dose: 200.0 mg/kg/injection, schedule: Q01DX009 (ip), vehicle: saline with Tween-80
[10] = dose: 12.5 mg/kg/injection, schedule: Q01DX009 (ip), vehicle: distilled water + Tween-80
[11] = dose: 25.0 mg/kg/injection, schedule: Q01DX009 (ip), vehicle: distilled water + Tween-80
[12] = dose: 50.0 mg/kg/injection, schedule: Q01DX009 (ip), vehicle: distilled water + Tween-80
[13] = dose: 50.0 mg/kg/injection, schedule: Q01DX009 (ip), vehicle: saline
[14] = dose: 100.0 mg/kg/injection, schedule: Q01DX009 (ip), vehicle: saline

CCCC(O)/C=C/C=C/C=C/C#CC#CCCCO (stereo unspecified)
T/C (dose: 0.25 mg/kg/injection, schedule: Q01DX005 (ip), vehicle: DMSO): 105 % of control | T/C (dose: 1.0 mg/kg/injection, schedule: Q01DX005 (ip), vehicle: DMSO): 101 % of control and 110 % of control | T/C (dose: 2.0 mg/kg/injection, schedule: Q01DX005 (ip), vehicle: DMSO): 124 % of control and 96 % of control | T/C (dose: 4.0 mg/kg/injection, schedule: Q01DX005 (ip), vehicle: DMSO): 104 % of control | T/C (dose: 8.0 mg/kg/injection, schedule: Q01DX005 (ip), vehicle: DMSO): 105 % of control

CN(C)c1ccc(C(c2cc3c(cc2O)OCO3)N2CCOCC2)cc1 (stereo unspecified)
T/C [1]: 113 % of control | T/C [2]: 120 % of control | T/C [3]: 108 % of control

CN(C)C1C(O)C2Oc3c(cc(O)c4c3C(=O)c3cc5c(c(O)c3C4=O)C(NC3CCCCC3)CC(C)(O)C5)C(C)(O2)C1O (stereo unspecified)
T/C (dose: 2.5 mg/kg/injection, schedule: Q01DX009 (ip), vehicle: other): 102 % of control | T/C (dose: 5.0 mg/kg/injection, schedule: Q01DX009 (ip), vehicle: other): 105 % of control | T/C (dose: 10.0 mg/kg/injection, schedule: Q01DX009 (ip), vehicle: other): 112 % of control | T/C (dose: 40.0 mg/kg/injection, schedule: Q01DX009 (ip), vehicle: other): 121 % of control

CC(Nc1nccs1)Nc1nccs1
T/C (dose: 6.25 mg/kg/injection, schedule: Q01DX009 (ip), vehicle: saline with Tween-80): 102 % of control and 96 % of control | T/C [4]: 108 % of control and 98 % of control | T/C (dose: 25.0 mg/kg/injection, schedule: Q01DX009 (ip), vehicle: saline with Tween-80): 102 % of control and 97 % of control | T/C [5]: 111 % of control | T/C [6]: 109 % of control

CN1C2=NCCN2C(=O)c2cc(Cl)ccc21
T/C [7]: 105 % of control | T/C [8]: 98 % of control

Oc1cc2c(cc1C(Nc1ncccn1)c1ccc3c(c1)OCO3)OCO2 (stereo unspecified)
T/C [1]: 102 % of control | T/C [2]: 100 % of control | T/C [3]: 95 % of control

COc1cc(OC)c2c3c1CCC(O)=C3C(=O)OC2
T/C (dose: 4.38 mg/kg/injection, schedule: Q01DX005 (ip), vehicle: Klucel (hydroxypropylcellulose) (HPC)): 94 % of control | T/C (dose: 8.75 mg/kg/injection, schedule: Q01DX005 (ip), vehicle: Klucel (hydroxypropylcellulose) (HPC)): 94 % of control | T/C (dose: 17.5 mg/kg/injection, schedule: Q01DX005 (ip), vehicle: Klucel (hydroxypropylcellulose) (HPC)): 94 % of control

C=C1C(=O)OC2C1CC/C(C)=C/CCC1(C)OC21 (stereo unspecified)
T/C (dose: 8.75 mg/kg/injection, schedule: Q01DX009 (ip), vehicle: Klucel (hydroxypropylcellulose) (HPC)): 106 % of control | T/C (dose: 17.5 mg/kg/injection, schedule: Q01DX009 (ip), vehicle: Klucel (hydroxypropylcellulose) (HPC)): 106 % of control

CC(O)C(NC(=O)c1ccccc1)C(=O)O (stereo unspecified)
T/C [5]: 99 % of control | T/C [6]: 95 % of control | T/C [9]: 91 % of control

O=C(Nc1c(Cl)cc(Cl)cc1Cl)ON=C1CCCCC1
T/C [1]: 96 % of control | T/C [2]: 102 % of control

N#CC1C(=O)NC(=O)C(C#N)C12CCCCC2 (stereo unspecified)
T/C (dose: 50.0 mg/kg/injection, schedule: Q04DX003 (ip), vehicle: saline with Tween-80): 105 % of control | T/C (dose: 100.0 mg/kg/injection, schedule: Q04DX003 (ip), vehicle: saline with Tween-80): 100 % of control | T/C (dose: 200.0 mg/kg/injection, schedule: Q04DX003 (ip), vehicle: saline with Tween-80): 105 % of control

OCc1ccc(OCc2ccccc2)c(OCc2ccccc2)c1
T/C (dose: 50.0 mg/kg/injection, schedule: Q04DX003 (ip), vehicle: saline): 98 % of control | T/C (dose: 100.0 mg/kg/injection, schedule: Q04DX003 (ip), vehicle: saline): 98 % of control | T/C (dose: 200.0 mg/kg/injection, schedule: Q04DX003 (ip), vehicle: saline): 104 % of control | T/C (dose: 400.0 mg/kg/injection, schedule: Q04DX003 (ip), vehicle: saline): 98 % of control

Nc1nc2c(C(=O)c3cccs3)nnn2c2cccc(Cl)c12
T/C [1]: 99 % of control | T/C [2]: 100 % of control | T/C [3]: 104 % of control

NC(=O)CCNC(=O)CCCNC(=O)CCNC(=O)OCc1ccccc1
T/C [10]: 96 % of control | T/C [11]: 110 % of control | T/C [12]: 97 % of control | T/C (dose: 100.0 mg/kg/injection, schedule: Q01DX009 (ip), vehicle: distilled water + Tween-80): 105 % of control | T/C (dose: 200.0 mg/kg/injection, schedule: Q01DX009 (ip), vehicle: distilled water + Tween-80): 96 % of control

CCCCCCCCCCCC(=O)/C=C/c1ccc(Cl)c(Cl)c1
T/C [7]: 102 % of control | T/C [8]: 90 % of control

COc1ccc(/C(C)=C\C(=O)O)cc1
T/C [6]: 90 % of control | T/C [9]: 100 % of control | T/C (dose: 400.0 mg/kg/injection, schedule: Q01DX009 (ip), vehicle: saline with Tween-80): 100 % of control

O=C1c2c3c(c4c(c2C(=O)c2c5c(c6c(c21)CCC6)CCC5)CCC4)CCC3
T/C (dose: 10.0 mg/kg/injection, schedule: Q01DX009 (ip), vehicle: saline with Tween-80): 95 % of control | T/C (dose: 20.0 mg/kg/injection, schedule: Q01DX009 (ip), vehicle: saline with Tween-80): 96 % of control | T/C (dose: 40.0 mg/kg/injection, schedule: Q01DX009 (ip), vehicle: saline with Tween-80): 99 % of control

Fc1ccc(CSC(=S)Nc2ccc(I)cc2)cc1
T/C (dose: 50.0 mg/kg/injection, schedule: Q01DX009 (ip), vehicle: suspension in saline): 97 % of control | T/C (dose: 100.0 mg/kg/injection, schedule: Q01DX009 (ip), vehicle: suspension in saline): 93 % of control | T/C (dose: 200.0 mg/kg/injection, schedule: Q01DX009 (ip), vehicle: suspension in saline): 103 % of control

O=[N+]([O-])c1ccc(OCCSc2ccccc2)cc1
T/C [5]: 90 % of control | T/C [6]: 98 % of control | T/C [9]: 100 % of control

COc1cccc(/C=N/NC(=O)C2CCN(C(=S)NC3CC4C=CC3C4)CC2)c1O (stereo unspecified)
T/C [4]: 101 % of control | T/C [5]: 99 % of control and 97 % of control | T/C [6]: 103 % of control | T/C [9]: 103 % of control

CC(O)CN(CCN(CC(C)O)CC(C)O)CC(C)O.[Cl-].[Co+2] (stereo unspecified)
T/C (dose: 12.5 mg/kg/injection, schedule: Q01DX009 (ip), vehicle: saline): 108 % of control and 111 % of control | T/C (dose: 25.0 mg/kg/injection, schedule: Q01DX009 (ip), vehicle: saline): 107 % of control and 110 % of control | T/C [13]: 111 % of control and 112 % of control and 119 % of control | T/C [14]: 123 % of control and 92 % of control

CNC(=O)OCc1c(-c2ccccc2)c(-c2ccccc2)n(C)c1COC(=O)NC
T/C (dose: 1.56 mg/kg/injection, schedule: Q01DX009 (ip), vehicle: distilled water + Tween-80): 102 % of control | T/C [10]: 154 % of control and 164 % of control | T/C [11]: 160 % of control and 174 % of control | T/C [12]: 165 % of control and 171 % of control

CCOC(=O)CCCC(NC(=O)c1ccc(N2CCN(c3c(N)nc(N)nc3NC)CC2)cc1)C(=O)OCC (stereo unspecified)
T/C (dose: 60.0 mg/kg/injection, schedule: Q01DX005 (ip), vehicle: Klucel (hydroxypropylcellulose) (HPC)): 91 % of control | T/C (dose: 120.0 mg/kg/injection, schedule: Q01DX005 (ip), vehicle: Klucel (hydroxypropylcellulose) (HPC)): 87 % of control | T/C (dose: 240.0 mg/kg/injection, schedule: Q01DX005 (ip), vehicle: Klucel (hydroxypropylcellulose) (HPC)): 96 % of control

COc1cccc2c1C(=O)c1c(O)c3c(c(O)c1C2=O)C[C@@](O)(C(C)O)C[C@@H]3OC1CC(N2CCC(OC)CC2)C(O)C(C)O1 (stereo partly specified)
T/C (dose: 0.78 mg/kg/injection, schedule: Q04DX003 (ip), vehicle: water): 112 % of control | T/C (dose: 1.56 mg/kg/injection, schedule: Q04DX003 (ip), vehicle: water): 114 % of control | T/C (dose: 3.12 mg/kg/injection, schedule: Q04DX003 (ip), vehicle: water): 111 % of control and 117 % of control | T/C (dose: 6.25 mg/kg/injection, schedule: Q04DX003 (ip), vehicle: water): 188 % of control | T/C (dose: 12.5 mg/kg/injection, schedule: Q04DX003 (ip), vehicle: water): 158 % of control and 240 % of control | T/C (dose: 25.0 mg/kg/injection, schedule: Q04DX003 (ip), vehicle: water): 118 % of control

Cc1ccc(S(=O)(=O)OCC2CCCC2COS(=O)(=O)c2ccc(C)cc2)cc1 (stereo unspecified)
T/C [8]: 100 % of control | T/C (dose: 200.0 mg/kg/injection, schedule: Q01DX009 (ip), vehicle: Klucel (hydroxypropylcellulose) (HPC)): 106 % of control | T/C (dose: 400.0 mg/kg/injection, schedule: Q01DX009 (ip), vehicle: Klucel (hydroxypropylcellulose) (HPC)): 105 % of control

COc1cc(C(C)(C)C)c2oc3c(c2c1)C(=O)C(C(C)(C)C)=CC3(OC)OC
T/C [13]: 104 % of control | T/C [14]: 100 % of control | T/C (dose: 200.0 mg/kg/injection, schedule: Q01DX009 (ip), vehicle: saline): 97 % of control

CCN(CCN(C)c1ccccc1)Cc1ccccc1
T/C [5]: 105 % of control | T/C [6]: 103 % of control | T/C [9]: 105 % of control
